Measured values reported in ChEMBL document CHEMBL1126399, “Synthesis and enzymatic properties of a deoxy analog of phosphatidylinositol” (Bioorg Med Chem Lett, 1992).

Assay: Inhibition of phosphatidylinositol (PI) hydrolysis
Type: functional

In the case of `CCCCCCCCCCCCCCCC(=O)OC[C@H](COP(=O)(O)O[C@H]1C[C@@H](O)C(O)[C@@H](O)C1O)OC(=O)CCCCCCCCCCCCCCC` (stereo partly specified), the IC50 is reported as 2000 µM.
